From patent publication US11135263B2 (priority 2014, dated 2021)
Entries after “also recorded” stand apart in the source; their conditions may differ. Where two headings read alike, the source gives them in different places.

Tests used:
[1] = system: avian influenza virus A/FPV/Bratislava/79 (H7N7); assay type: cell-based; conditions: for virus titers: 18 hrs; for IV titers: 2 μM tamiflu vs Hepes, in absence or presence of S. aureus 6850
[2] = shown recently; cited from earlier work
[3] = system: Staphylococcus aureus 6850; assay: mouse co-infection model, bacterial titers in lung homogenate; assay type: in vivo, Balb/C mice; conditions: S. aureus super-infection day 3, lungs day 4
Procedure: (§1) FIG. 17: Administration of U0126 leads to reduced bacterial titers in vivo independent of viral titers. 12 weeks old Balb/C mice were infected with 50 PFU of the influenza virus strain A/Puerto Rico/8/34 (PR8, H1N1) on day 0 (anesthesized with Isoflurane). Starting on day 1 mice were treated daily with i.p. injection of 30 mg/kg/day U0126 or solvent control (10% DMSO, 30% Cremophor EL, 60% PBS). On day 3 mice were infected with 5*10^7 CFU of Staphylococcus aureus 6850 under anesthesia with Isoflurane and directly treated with U0126 or solvent control. On day 4 lungs were removed and homogenized in PBS (0.1 g per 1000 μl PBS). For calculation of bacterial titers serial dilutions of the homogenate were plated on BHI agar. For determination of viral titers a standard plaque assay was performed. Statistical analysis was done using Mann-Whitney U Test (* p<0.05).
(§2) 8 weeks old Balb/C mice (5 per group) were infected with 50 PFU of influenza virus strain A/Puerto Rico/8/34 (PR8, H1N1) on day 0 (anesthesized with Isoflurane). 6 hrs post viral infection mice were treated with oral administration of 10 mg/kg/day Cobimetinib or solvent control (10% DMSO, 5% Tween 20, 85% PBS). Treatment was then performed daily. On day 3 mice were infected with 5*10^7 CFU of Staphylococcus aureus 6850 under anesthesia with Isoflurane and 6 hrs later treated with Cobimetinib or solvent control. […]

[4] = system: influenza virus strain A/Puerto Rico/8/34 (PR8, H1N1); assay: mouse co-infection model, viral titers in lung homogenate (plaque assay); assay type: in vivo, Balb/C mice; conditions: lungs day 4
Procedure: as §1, §2

S. aureus 6850 [5] = assay type: cell-based, Staphylococcus aureus
[6] = system: influenza virus A/Puerto Rico/8/34 (H1N1); assay type: cell-based
CCL3 = conditions: 50 μM U0126; H3N2 (MOI=5) with or without S. aureus 6850 (MOI=50); 8 hrs; preliminary results
[7] = system: Human lung epithelial cells (A549); assay type: cell-based
S. aureus 6850 [8] = assay type: cell-based, Staphylococcus aureus; remark: listed apart in the source
CCL5 = conditions: 50 μM U0126; H3N2 (MOI=5) with or without S. aureus 6850 (MOI=50); 8 hrs; preliminary results
ERK-1/2 phosphorylation = conditions: 50 μM U0126; western blot, 8 hrs
S. aureus USA300 = assay: bacterial internalisation (uptake) into A549 cells after 4 h preincubation; conditions: 2.5 ng/ml TNF-alpha, stimulation 4 hours prior bacterial infection; MOI=5; 120 min
S. aureus 6850 [9] = assay: as above; conditions: 2.5 ng/ml TNF-alpha, stimulation 4 hours prior bacterial infection; 120 min
[10] = […], U0126 50 μM, SB202190 10 μM or LG-ASA 5 mM vs solvent control
[11] = […], U0126 50 μM, SB202190 10 μM or LG-ASA 5 mM vs solvent control, listed as SB02190

**Q.** For `O=C(NOCC1CC1)c1ccc(F)c(F)c1Nc1ccc(I)cc1Cl` [CI-1040, 2-(2-chloro-4-iodophenylamino)-N-(cyclopropylmethoxy)-3,4-difluorobenzamide], which virus titers ([1]; 10 μM CI-1040 vs solvent, singular and co-infection with S. aureus 6850 (MOI=0.1), MOI=0.01) is on record?
**A.** The virus titers was “reduction; also recorded: reduces”.

**Q.** Which maximal tolerated dose [2] does the source give for `O=C(c1ccc(F)c(F)c1Nc1ccc(I)cc1F)N1CC(O)([C@@H]2CCCCN2)C1` [Cobimetinib, [3,4-difluoro-2-[(2-fluoro-4-iodophenyl)amino]phenyl] [3-hydroxy-3-[(2S)-2-piperidinyl]-1-azetidinyl]methanone] here?
**A.** Its maximal tolerated dose is 30 mg/kg/day.

**Q.** And the “bacterial titers in vivo (lung)” value ([3]; Cobimetinib 10 mg/kg/day oral, daily)?
**A.** The value was “slight but clearly detectable reduction; also recorded: reduces”.

**Q.** And the “viral titers in vivo (lung)” value ([4]; Cobimetinib 10 mg/kg/day oral, daily from 6 hrs post viral infection)?
**A.** The value was “slight but clearly detectable reduction; also recorded: reduces”.

**Q.** Which IV titers ([1]; MOI=0.001) does the source give for `CCOC(=O)C1=C[C@@H](OC(CC)CC)[C@H](NC(C)=O)[C@@H](N)C1` [Oseltamivir] here?
**A.** The IV titers was “significantly reduced”.

**Q.** What about the IV titers ([1]; MOI=0.001, listed as tamiflu) of the same compound?
**A.** The IV titers was “reduces”.

**Q.** And the “intracellular bacterial amounts (S. aureus load)” value (S. aureus 6850 [5])?
**A.** The value was “rather increased; also recorded: enhances”.

**Q.** What does the source list for `Oc1ccc(-c2nc(-c3ccncc3)c(-c3ccc(F)cc3)[nH]2)cc1` [SB202190]?
**A.** IV replication (IV titers) [6, 10]: reduces; viral titers in presence of S. aureus [6, 10]: reduces; IV replication (IV titers) [6, 11]: inhibitory effects; viral titers in presence of S. aureus [6, 11]: reduced

**Q.** Which “IAV-induced CCL3 mRNA synthesis” value (CCL3) does the source give for `N#CC(=C(/N)Sc1ccccc1N)/C(C#N)=C(\N)Sc1ccccc1N` [U0126] here?
**A.** The value was “reduced”.

**Q.** And the “cell damage of cell layer (cell morphology)” value [7]?
**A.** The value was “much less damaged”.

**Q.** And the “bacterial titers in vivo (lung)” value ([3]; U0126 30 mg/kg/day i.p. daily from day 1, 30 mg/kg/day)?
**A.** Its value is “significantly reduced”.

**Q.** What about the bacterial growth (S. aureus 6850 [8]) of the same compound?
**A.** The bacterial growth was “inhibited; also recorded: reduced”.

**Q.** And the “bacterial titers without living cells” value (S. aureus 6850 [8])?
**A.** Its value is “reduced”.

**Q.** What about the “IAV-induced CCL5 mRNA synthesis” value (CCL5) of the same compound?
**A.** Its value is “further reduced”.

**Q.** What about the “viral protein synthesis (PB1)” value (viral protein (PB1)) of the same compound?
**A.** The value was “reduction”.

**Q.** What about the virus titers ([1]; 50 μM U0126 vs solvent, co-infection with S. aureus 6850 (MOI=0.1)) of the same compound?
**A.** Its virus titers is “reduced”.

**Q.** What about the virus titers ([1]; 50 μM U0126 vs solvent, singular infection, MOI=0.01) of the same compound?
**A.** The virus titers was “significant reduction”.

**Q.** What about the “viral titers in presence of S. aureus” value ([1]; co-infection with S. aureus 6850 (MOI=0.5), virus MOI=0.001, 50 μM U0126 vs DMSO) of the same compound?
**A.** The value was “reduces”.

**Q.** And the “IV replication (IV titers)” value ([1]; singular infection, MOI=0.001, 50 μM U0126 vs DMSO)?
**A.** The value was “inhibitory effects; also recorded: reduces”.

**Q.** What about the “IV replication (IV titers)” value [6] of the same compound?
**A.** Its value is “inhibitory effects; also recorded: reduces”.

**Q.** What about the “viral titers in presence of S. aureus” value [6] of the same compound?
**A.** The value was “reduces”.

**Q.** What about the “effect on MEK/ERK signalling (ERK1/2 phosphorylation)” value (ERK-1/2 phosphorylation) of the same compound?
**A.** Its value is “inhibitory effect”.

**Q.** And the “bacterial titers of internalized S. aureus 6850” value (S. aureus 6850 [5])?
**A.** Its value is “only slightly decreased”.

**Q.** What about the “intracellular amounts of S. aureus (S. aureus load)” value (S. aureus 6850 [5]) of the same compound?
**A.** The value was “reduces”.

**Q.** And the “virus titers in vivo (lung)” value ([4]; U0126 30 mg/kg/day i.p. daily from day 1)?
**A.** The value was “fail of reduced virus titers”.

**Q.** For TNF-α, which “bacterial uptake upon NFκB activation” value (S. aureus USA300) is on record?
**A.** Its value is “enhanced uptake”.

**Q.** What about the “bacterial uptake upon NFκB activation” value (S. aureus 6850 [9]) of the same compound?
**A.** Its value is “enhanced uptake”.
